According to patent US7820624B2, “Peptide ligands” (ICH Productions Limited, priority 2003, dated 2010):

Tests used:
Neuro-2A cells = assay: Adenoviral transduction of Neuro-2A cells; type: cell-based, mouse; settings: 10,000 particles per cell in OptiMEM
Protocol: (§1) Day 6 dendritic cells (see Example 1(v) above), or mouse bone marrow derived dendritic cells or mouse Sca1+ve stem cells, see (i) and (ii) above, were plated at 5×10^4 cells per well in a 48 well plate in 500 μl complete medium and allowed to settle for 3 hours at 37° C. Transductions were carried out in complete media, with virus being added at 100,000 viral particles/cell for 24 hours. Cells were harvested by scraping, spun down at 650 g (2000 rpm) for 5 min, resuspended in 300 μl PBS, and kept on ice before analysis. Viral transduction as determined by percentage of GFP positive cells was measured by FACS analysis. To measure percentage viability, 10 μl of 7-amino-actinomycin D (7AAD; Sigma, Poole, Dorset) was added immediately prior to analysis. Viral transduction of macrophages was carried out at 10,000 particles/cell in medium containing 2.5% FCS. […] Cells were then washed twice in PBS, trypsinised, triplicate wells pooled, spun down at 350×g for 5 min and resuspended in 300 μl PBS before analysis by flow cytometry where cell viability was to be measured, 10 μl 7AAD was added just prior to analysis.
(§2) For transduction of these other cell types, cells were seeded overnight at 5×10^4 cells per well in 24 well plates in the appropriate media. […] Where cell viability was to be measured, 10 μl 7-amino-actinomycin D (7AAD; Sigma, Poole, Dorset) was added just prior to analysis. […]

[1] = test system: day 6 immature dendritic cells; assay: Maturation of adenovirus-transduced dendritic cells in response to LPS (marker flow cytometry); type: cell-based, human; settings: LPS 50 ng/ml; virus 100,000 particles per cell
Protocol: Day 6 immature dendritic cells were infected with retargeted Ad or Ad5 at 100,000 particles per cell in complete medium for 24 hours, with E. coli 026:B6 lipopolysaccharide (LPS) added following 3 hours incubation at a concentration of 50 ng/ml. As controls, dendritic cells were either incubated in complete medium for 24 hours or matured by the addition of LPS in complete medium for 24 hours, In all samples IL-4 and GM-CSF were present in the complete medium at 25 ng/ml and 100 ng/ml respectively. Cells were then phenotyped by staining as follows: a minimum of 5×10^4 cells in a volume of less than 2 ml medium were added to the recommended amount of antibody and incubated for 20 min on ice. 2 ml of ice-cold PBS was added before centrifugation at 300×g for 5 min at 4° C. The supernatant was flicked off and the pellet resuspended in 300 μl ice cold PBS. Cells from each sample were stained with antibodies to HLA-DR, CD40, CD80, CD83, CD86 and isotype matched control antibodies. Where cell viability was also measured, […] of 7AAD was added immediately prior to analysis. Cells were analysed by flow cytometry using a Epics XL (Beckman Coulter, High Wycombe, UK.) and the EXPO32 analysis software (Beckman Coulter).

[2] = test system: mouse Sca1-positive stem cells; assay: Adenoviral transduction of mouse Sca1+ve stem cells; type: cell-based
Protocol: Mouse bone marrow cells were isolated as above and Sca1+ve cells were isolated using MACs Sca1 microbeads (Miltenyi Biotec, Bisley, U.K.). These cells were plated at 7×10^4 cells/500 μl in RPMI with Glutamax-1 containing 30% FCS and penicillin/streptomycin and the following cytokines murine SCF (50 ng/ml; Preprotech, London, UK), IL-6 (20 ng/ml; Preprotech, London, UK) and Flt3-L (10 ng/ml) (R&D Systems, Oxford, U. K.).
as §1, with “analysis.” for “analysis. To measure percentage viability, 10 μl of 7-amino-actinomycin D (7AAD; Sigma, Poole, Dorset) was added immediately prior to analysis. Viral transduction of macrophages was carried out at 10,000 particles/cell in medium containing 2.5% FCS.”

1HAEo- cells = assay: Adenoviral transduction of 1HAEo- cells; type: cell-based, human; settings: 10,000 particles per cell in OptiMEM; listed as peptide A
Protocol: as §1, §2

HMEC-1 cells = assay: Adenoviral transduction of HMEC-1 cells; type: cell-based, human; settings: 10,000 particles per cell in OptiMEM; listed as peptide A
Protocol: as §1, §2

[3] = test system: day 4 immature dendritic cells; assay: Phenotyping of LID-transfected dendritic cells (HLA-DR, CD86); type: cell-based, human; settings: LID with lipofectin, peptide:DNA 7:1
Protocol: Immature day 4 dendritic cells were transfected with LID complex with peptide A at a charge ratio 7:1 to the DNA (plasmid pEGFP-N1), with lipofectin added at a weight ratio of 0.75 to the DNA for 4 hours in RPMI before incubating in complete medium with cytokines for 24 hours. As a control, dendritic cells were incubated in complete medium for 24 hours (immature Dendritic cells) Cells were then harvested by scraping and stained for the presence of maturation markers as follows: a minimum of 5×10^4 cells in a volume of less than 2 ml medium were added to the recommended amount of antibody and incubated for 20 min on ice. 2 ml of ice-cold PBS was added before centrifugation at 300×g for 5 min at 4° C. The supernatant was flicked off and the pellet resuspended in 300 μl ice cold 1% paraformaldehyde-PBS. Cells from each sample were stained with antibodies to HLA-DR, and CD86 and isotype matched control antibodies. Cells were analysed by flow cytometry using a Epics XL (Beckman Coulter, High Wycombe, UK.) and the EXPO32 analysis software (Beckman Coulter).

Substance	Transduction, % GFP-positive cells (Neuro-2A cells)	CD40 positive cells [1]	CD80 positive cells [1]	CD83 positive cells [1]	CD86 positive cells [1]	HLA-DR positive cells [1]	Transduction efficiency [2]	Transduction, % cells transduced (1HAEo- cells)	Transduction, % cells transduced (HMEC-1 cells)	HLA-DR and CD86 on transfected cells [3]
SHVKLNS (Synthetic peptide binding to dendritic cells) [listing 1 of 2 here]	63.5%	15.6%	16.5%	24.6%	98.4%	58.1%	5.4%	82.9%	95.7%	
SHVKLNS (Synthetic peptide binding to dendritic cells) [listing 2 of 2 here]										upregulated CD86 and HLA-DR
